Where “and” joins values, the source holds several entries; their conditions need not be identical. Equal values may be shown once.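 Method: 48-hour compound exposure of cells in 96-well plates, five concentrations, linear interpolation of endpoints. Here, GI50 denotes the concentration required for 50% inhibition of growth. TGI denotes the concentration required for complete inhibition of growth.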
Columns and labels:
Experiment in all cases: inhibition of tumour cell growth, NCI panel, 48 h
[1] = system: SK-MEL-28 melanoma
[2] = system: HL-60(TB) leukemia
[3] = system: SK-OV-3 ovarian
[4] = system: OVCAR-8 ovarian
[5] = system: KM12 colon
[6] = system: U251 CNS
[7] = system: DU-145 prostate
[8] = system: SF-268 CNS
[9] = system: NCI-H226 lung
[10] = system: M14 melanoma

SMILES	TGI [1] [µM]	TGI [2] [µM]	TGI [3] [µM]	TGI [4] [µM]	TGI [5] [µM]	TGI [6] [µM]	TGI [7] [µM]	TGI [8] [µM]	TGI [9] [µM]	TGI [10]	GI50 [1]	GI50 [2]	GI50 [5]	GI50 [10]
C=C(C)[C@@H]1CC[C@]2(C(=O)O)CC[C@]3(C)[C@H](CC[C@@H]4[C@@]5(C)CC(=O)C(C)(C)[C@@H]5CC[C@]43C)[C@@H]12	> 25	1.61	> 25	> 25	> 25	> 25	> 25	> 25	> 25	> 25 µM				
O=C1NC(N/N=C\C(O)C(O)C(O)CO)=N/C1=C/c1ccccc1 (centres undefined)	> 100	> 100	> 100	> 100	> 100	> 100	> 100	> 100	> 100	> 100 µM and 76.9 µM	> 100 µM and 25.6 µM	> 100 µM and 41.2 µM	> 100 µM and 28.1 µM	> 100 µM and 30.4 µM
O=C1C=CC2CCC1C2 (centres undefined)	89.9	> 100	72.4	> 100	> 100	> 100	> 100	58.6	98.5	> 100 µM				
Cc1ccc(S(=O)(=O)c2scc(-c3ccccc3)c2C)cc1	> 100	> 100	> 100	> 100	> 100	> 100	> 100	> 100	> 100	> 100 µM				
CCCCNC1CCC2(SCCS2)c2[nH]c3ccccc3c21 (centres undefined)	> 100	8.05	> 100	66.3	36.9	97.3	> 93.8	> 100	> 73.7	> 65.1 µM				
COC(=O)[C@H](Cc1ccccc1)NC(=O)c1ccc(CNC(=O)/C=C/c2ccc(-c3ccccc3)cc2)cc1	> 100	> 100	> 100	> 100	> 100	37.3	> 100	> 100	> 100	> 100 µM				
c1ccc(C2=NC3(CCCCC3)N(c3nc4ccccc4s3)N2)nc1	> 100	80.3	> 100	> 100	75.9	49	> 100	> 100	65.6	59.2 µM				
COC(=O)c1c2c(cc3c1CC1(Cc4ccccc4C1=O)C3)CCC2 (centres undefined)	> 100	53.1	> 100	> 100	61.5	> 100	> 100	> 100	44.2	> 100 µM				
COC(=O)N1CC2(CO)C3CC=C(C(=O)Nc4ccccc4Br)C2C1C3Br (centres undefined)	> 50	> 50	> 50	> 50	> 50	> 50	> 50	> 50	> 50	> 50 µM				
CC[n+]1cnc(N)c2c(-c3ccc(Cl)cc3)cn(-c3ccc(C)cc3)c21	21.2	44.3	29	32.7	30.7	24.3	31.8	26.7	28.2	4.14 µM				
C1=C\SS/C=C\SS/C=C\SS/C=C\SS/1	> 100	58.1	> 100	> 100	> 100	> 100	> 100	> 100	> 100	> 100 µM				
CCOC(=O)c1cnc(-n2[nH]c(C)c(CCO)c2=O)[nH]c1=O	> 100	> 100	> 100	> 100	> 100	> 100	> 100	> 100	> 100	> 100 µM				
CCOc1cc2c(cc1O)/C(=N\N)C[C@@H]1[C@@H]2CC[C@]2(C)[C@@H](O)CC[C@@H]12	34.2	> 61.9	> 100	> 42.9	23	> 48.9	> 66.8	> 44.9	29.2	> 41.7 µM				
C=CCNC(=S)Nc1sc2c(c1C(=O)OCC)CC(C)CC2 (centres undefined)	> 100	14.7	69.4	> 100	> 100	> 100	> 100	> 100	50.7	49.9 µM				
O=S(=O)(Oc1ccc2oc3ccccc3c2c1-c1c(OS(=O)(=O)C(F)(F)F)ccc2oc3ccccc3c12)C(F)(F)F	> 100	> 100	> 100	> 100	> 100	> 100	> 100	> 100	> 100	> 100 µM				
